In the NIST ThermoML archive (doi:10.1016/j.tca.2012.10.018):
Values joined by “and” are separate entries in the source; they are usually repeats but may differ in a detail not shown here. Equal entries are not always repeated.

Tests used:
[1] = mn = molality of the nth substance listed, in mol/kg; settings: 101 kPa, Liquid; for speed of sound: Sing-around technique in a fixed-path interferometer; for mass density: Vibrating tube method
[2] = 101 kPa, Liquid; for speed of sound: Sing-around technique in a fixed-path interferometer; for mass density: Vibrating tube method

CC1(C)SC2C(NC(=O)C(N)c3ccccc3)C(=O)N2C1C(=O)O (stereo not drawn) + O
[1]
Settings | mass density, m1 = 0.0005 [kg/m3] | mass density, m1 = 0.001 [kg/m3] | mass density, m1 = 0.002 [kg/m3] | mass density, m1 = 0.004 [kg/m3] | speed of sound, m1 = 0.0005 [m/s] | speed of sound, m1 = 0.001 [m/s] | speed of sound, m1 = 0.002 [m/s] | speed of sound, m1 = 0.004
305.15 K | 995.119 | 995.211 | 995.313 | 995.507 | 1513.6 | 1513.8 | 1514.1 | 1514.2 m/s
310.15 K | 993.425 | 993.515 | 993.607 | 993.805 | 1523.4 | 1523.6 | 1524.1 | 1524 m/s
315.15 K | 991.53 | 991.614 | 991.711 | 991.91 | 1531.9 | 1532 | 1532.4 | 1532.4 m/s and 1531.9 m/s

NCC(=O)O [2-aminoacetic acid] + O
[1]
Settings | mass density, m1 = 0.03272 [kg/m3] | mass density, m1 = 0.04933 [kg/m3] | mass density, m1 = 0.0581 [kg/m3] | mass density, m1 = 0.09278 [kg/m3] | mass density, m1 = 0.1392 [kg/m3] | speed of sound, m1 = 0.03272 [m/s] | speed of sound, m1 = 0.04933 [m/s] | speed of sound, m1 = 0.0581 [m/s] | speed of sound, m1 = 0.09278 [m/s] | speed of sound, m1 = 0.1392 [m/s]
305.15 K | 996.158 | 996.664 | 996.929 | – | 999.339 | 1515 | 1515.7 | 1516.1 | 1517.7 | 1519.6
310.15 K | 993.281 | – | 994.038 | 995.054 | – | 1524.9 | 1525.5 | 1525.9 | 1527.3 | 1529
315.15 K | 992.376 | – | 993.122 | 994.122 | 995.416 | 1533.4 | 1534 | 1534.3 | 1535.6 | 1537.2

CC(C)C[C@H](NC(=O)CN)C(=O)O [glycyl-L-leucine] + O
[1]
Settings | mass density, m1 = 0.03308 [kg/m3] | mass density, m1 = 0.05972 [kg/m3] | mass density, m1 = 0.09457 [kg/m3] | mass density, m1 = 0.1115 [kg/m3] | speed of sound, m1 = 0.03308 [m/s] | speed of sound, m1 = 0.05972 [m/s] | speed of sound, m1 = 0.09457 [m/s] | speed of sound, m1 = 0.1115 [m/s]
305.15 K | 996.762 | 998.038 | 999.652 | 1000.42 | 1518.1 | 1521.8 | 1526.8 | 1529.1
310.15 K | 993.879 | 995.132 | 996.722 | 997.479 | 1528 | 1531.6 | 1536.3 | 1538.6
315.15 K | 992.968 | 994.198 | 995.757 | 996.494 | 1536.5 | 1539.9 | 1544.4 | 1546.6

NCC(=O)NCC(=O)O [glycylglycine] + O
[1]
Settings | mass density, m1 = 0.01976 [kg/m3] | mass density, m1 = 0.03098 [kg/m3] | mass density, m1 = 0.06804 [kg/m3] | mass density, m1 = 0.08258 [kg/m3] | mass density, m1 = 0.1196 [kg/m3] | speed of sound, m1 = 0.01976 [m/s] | speed of sound, m1 = 0.03098 [m/s] | speed of sound, m1 = 0.06804 [m/s] | speed of sound, m1 = 0.08258 [m/s] | speed of sound, m1 = 0.1196 [m/s]
305.15 K | 996.227 | 996.841 | 998.809 | 999.555 | 1001.4 | 1515 | 1515.8 | 1518.5 | 1519.5 | 1522.1
310.15 K | 993.362 | 993.969 | 995.921 | 996.662 | 998.494 | 1524.9 | 1525.7 | 1528.1 | 1529.1 | 1531.5
315.15 K | 992.463 | 993.064 | 994.996 | 995.732 | 997.528 | 1533.4 | 1534.1 | 1536.3 | 1537.2 | 1539.4

O [water]
[2]
Settings | mass density [kg/m3] | speed of sound [m/s]
305.15 K | 995.132 | 1513.5
310.15 K | 992.274 | 1523.5
315.15 K | 991.385 | 1532.2

O [water] + CC(C)C[C@H](NC(=O)CN)C(=O)O
[1], m2 = 0
Settings | mass density [kg/m3] | speed of sound [m/s]
305.15 K | 995.132 | 1513.5
310.15 K | 992.274 | 1523.5
315.15 K | 991.385 | 1532.2

O [water] + NCC(=O)NCC(=O)O
[1], m2 = 0
Settings | mass density [kg/m3] | speed of sound [m/s]
305.15 K | 995.132 | 1513.5
310.15 K | 992.274 | 1523.5
315.15 K | 991.385 | 1532.2

O [water] + NCC(=O)O
[1], m2 = 0
Settings | mass density [kg/m3] | speed of sound [m/s]
305.15 K | 995.132 | 1513.5
310.15 K | 992.274 | 1523.5
315.15 K | 991.385 | 1532.2
